US20240101599A1, “PEPTIDE, CELL GROWTH PROMOTER, PROTEIN PRODUCTION PROMOTER, CULTURE MEDIUM, CELL GROWTH METHOD USING PEPTIDE, AND PROTEIN PRODUCTION METHOD USING PEPTIDE” (Maruhachi Muramatsu, Inc., priority 2020, published 2024)

What was measured:
CHO-K1 [1] = assay: Cell growth test of each peptide on coating agent for 5 days; type: cell-based; parameters: Viability, 1 / Viability, 2 / Viability, 3 / Viability, Mean: unit not given here; conditions: 2.0 mM Ala-Gly-Lys, 2.1 mM Gly-Glu-Lys, 2.5 mM Gly-Gly-Gly, poly-L-lysine coating
Method: Peptides having the sequences of Asp-Gly-Pro (DGP), Ala-Gly-Lys (AGK), Gly-Glu-Lys (GEK), and Gly-Gly-Gly (GGG) were synthesized to prepare each peptide solution such that the concentration was a concentration at which the cell number increased the most within a range of 0 mM to 5 mM. In other words, Asp-Gly-Pro (DGP) was adjusted to 22 mM, Ala-Gly-Lys (AGK) was adjusted to 20 mM, Gly-Glu-Lys (GEK) was adjusted to 21 mM, and Gly-Gly-Gly (GGG) was adjusted to 25 mM, and an amount of 1/10 of the total culture medium volume was added to each well immediately before the cell culture test such that final concentrations were 2.2 mM, 2.0 mM, 2.1 mM, and 2.5 mM, respectively. Poly-L-lysine (Peptide Institute, Inc., Poly-L-Lysine Hydrochloride, code: 3075) was prepared to 0.1 mg/mL, and 200 μL was dispensed into each well of a 24-well plate, which was left to stand in an incubator at 37° C. for 2 hours. After removing the residual liquid with an aspirator, rinsing was performed with distilled water, irradiation was performed with a UV lamp in a clean bench without a lid, and drying was performed overnight to sterilize. A cell suspension prepared such that CHO-K1 (RIKEN BioResource Research Center, cell number: RCB2330) was at 4×10^4 cells/mL was seeded in each well of a 24-well plate at 500 μL/well and cultured in an incubator at 37° C. and 5% CO2 for 24 hours. As a culture medium, an MEMα culture medium (Gibco) containing 10% FBS was used.
After removing the culture medium from each well and washing with the MEMα culture medium (500 μL), 450 μL of a new MEMα culture medium was dispensed into each well, and each peptide solution (50 μL) was added (total 500 μL/well) to perform culture for 5 days. The cells were recovered to count the cell number. A similar culture test was performed using a system containing neither peptide nor FBS as a comparative sample.
The culture medium in each well was recovered in a 1.5 mL tube to be rinsed with 200 μL of MEMα, and the rinsed liquid was also recovered in the same 1.5 mL tube. Thereafter, 100 μL of trypsin was added and incubated for 3 minutes. After rinsing with 300 μL of MEMα containing 10% FBS, the rinsed liquid was also recovered in the same 1.5 mL tube. After rinsing again with 200 μL of MEMα containing 10% FBS, the rinsed liquid was also recovered in the same 1.5 mL tube.
A centrifugation operation was performed on the cells recovered in the 1.5 mL tube. The centrifugation conditions were 1,000 rpm, 10 minutes, and 4° C.
The supernatant was removed, and 300 μL of Cold PBS (phosphate buffered saline) was added to perform a centrifugation operation under the same conditions. The present operation was repeated twice.
Suspension was carried out with 100 μL of Binding Buffer, and 2 μL of propidium iodide (PI) was added and stirred in the tube to cause a reaction for 15 minutes at room temperature and with light shielding. Thereafter, the viable cell count and the cell viability were measured with a flow cytometer.
The above preparation, culture, and measurement were performed with n=3. Table 15 and FIG. 15 show the viable cell count in each peptide solution, and Table 16 and FIG. 16 show the cell viability in each peptide solution.

CHO-K1 [2] = assay: Relationship between concentration of each peptide solution and viable cell count (absorbance); type: cell-based; conditions: for Absorbance (450 nm): 5 days, MEMα without FBS, n = 3 average, 0 mM = 0.0000; for cell growth promotion, order of the peptides: in words, promoted in the order GEK, DGP, AGK, GPP, GGP, AEK, AGG, ASN, EGK (strongest first)
Method: Peptides having the sequences of Gly-Glu-Lys (GEK), Asp-Gly-Pro (DGP), Ala-Gly-Lys (AGK), Gly-Pro-Pro (GPP), Gly-Gly-Pro (GGP), Ala-Glu-Lys (AEK), Ala-Gly-Gly (AGG), Ala-Ser-Asn (ASN), and Glu-Gly-Lys (EGK), and Gly-Gly-Gly (GGG) are synthesized to prepare each of peptide solutions at 10-fold concentrations shown in Tables 1 to 10.
A cell suspension prepared such that CHO-K1 (RI KEN BioResource Research Center, cell number: RCB2330) was at 3×10^4 cells/mL was seeded in a 96-well plate at 100 μL/well and cultured in an incubator at 37° C. and 5% CO2 for 24 hours. As a culture medium, an MEMα culture medium (Gibco) containing 10% FBS was used.
After removing the culture medium from each well and washing with the MEMα culture medium (100 μL), 90 μL of a new MEMa culture medium was dispensed into each well, and each peptide solution (10 μL) was added (total 100 μL/well) such that final concentrations were within a range of 0 mM to 5 mM as shown in Tables 1 to 10 to perform culture for 5 days. A similar culture test was performed using a system containing neither peptide nor FBS as a comparative sample. After culturing for 5 days, 10 μL/well of a viable cell count measurement reagent SF (Nacalai Tesque Inc.) was added, and a color reaction was carried out in an incubator at 37° C. and 5% CO2 for 2 hours to measure an absorbance at 450 nm with a plate reader. A reference wavelength was 630 nm. It was confirmed that the absorbance at 450 nm correlated with the cell number.
The above preparation, culture, and measurement were performed with n=3, and Tables 1 to 10 and FIGS. 1 to 10 show the absorbance at the concentration of each peptide solution.

[3] = replicate 1, 2.2 mM Asp-Gly-Pro
[4] = replicate 2, 2.2 mM Asp-Gly-Pro
[5] = replicate 3, 2.2 mM Asp-Gly-Pro

Gly-Gly-Gly [GGG, reference compound]
Cells cell count, Mean (CHO-K1 [1]; mean n=3, 2.2 mM Asp-Gly-Pro): 0.0502 ×10^4
Viability, Mean (CHO-K1 [1]; mean n=3, 2.2 mM Asp-Gly-Pro): 1.7
Cells cell count, 1 (CHO-K1 [1]; [3]): 0.1360 ×10^4
Viability, 1 (CHO-K1 [1]; [3]): 4.45
Cells cell count, 2 (CHO-K1 [1]; [4]): 0.0080 ×10^4
Viability, 2 (CHO-K1 [1]; [4]): 0.31
Cells cell count, 3 (CHO-K1 [1]; [5]): 0.0065 ×10^4
Viability, 3 (CHO-K1 [1]; [5]): 0.21
Absorbance (450 nm) (CHO-K1 [2]; 0.156 mM peptide): 0.0067
Absorbance (450 nm) (CHO-K1 [2]; 0.313 mM peptide): 0.0037
Absorbance (450 nm) (CHO-K1 [2]; 0.625 mM peptide): 0.0027
Absorbance (450 nm) (CHO-K1 [2]; 1.25 mM peptide): −0.0013
Absorbance (450 nm) (CHO-K1 [2]; 2.5 mM peptide): 0.0013
Absorbance (450 nm) (CHO-K1 [2]; 5 mM peptide): 0.0083

Ala-Glu-Lys [AEK]
Absorbance (450 nm) (CHO-K1 [2]; 0.129 mM peptide): 0.0350
Absorbance (450 nm) (CHO-K1 [2]; 0.259 mM peptide): 0.1143
Absorbance (450 nm) (CHO-K1 [2]; 0.516 mM peptide): 0.1927
Absorbance (450 nm) (CHO-K1 [2]; 1.03 mM peptide): 0.2337
Absorbance (450 nm) (CHO-K1 [2]; 2.06 mM peptide): 0.5013
Absorbance (450 nm) (CHO-K1 [2]; 4.13 mM peptide): 0.4857
cell growth promotion, order of the peptides (CHO-K1 [2]): cell growth was promoted

Gly-Gly-Pro [GGP]
Absorbance (450 nm) (CHO-K1 [2]; 0.135 mM peptide): 0.0420
Absorbance (450 nm) (CHO-K1 [2]; 0.270 mM peptide): 0.0966
Absorbance (450 nm) (CHO-K1 [2]; 0.539 mM peptide): 0.2946
Absorbance (450 nm) (CHO-K1 [2]; 1.08 mM peptide): 0.4653
Absorbance (450 nm) (CHO-K1 [2]; 2.16 mM peptide): 0.5483
Absorbance (450 nm) (CHO-K1 [2]; 4.31 mM peptide): 0.3286
cell growth promotion, order of the peptides (CHO-K1 [2]): cell growth was promoted

Ala-Ser-Asn
Absorbance (450 nm) (CHO-K1 [2]; 0.138 mM peptide): −0.0527
Absorbance (450 nm) (CHO-K1 [2]; 0.276 mM peptide): −0.0250
Absorbance (450 nm) (CHO-K1 [2]; 0.552 mM peptide): −0.0214
Absorbance (450 nm) (CHO-K1 [2]; 1.10 mM peptide): −0.0224
Absorbance (450 nm) (CHO-K1 [2]; 2.21 mM peptide): 0.1170
Absorbance (450 nm) (CHO-K1 [2]; 4.42 mM peptide): 0.3320
cell growth promotion, order of the peptides (CHO-K1 [2]): cell growth was promoted

Glu-Gly-Lys [EGK]
Absorbance (450 nm) (CHO-K1 [2]; 0.128 mM peptide): 0.0383
Absorbance (450 nm) (CHO-K1 [2]; 0.257 mM peptide): 0.1123
Absorbance (450 nm) (CHO-K1 [2]; 0.512 mM peptide): 0.0893
Absorbance (450 nm) (CHO-K1 [2]; 1.02 mM peptide): 0.1503
Absorbance (450 nm) (CHO-K1 [2]; 2.05 mM peptide): 0.1876
Absorbance (450 nm) (CHO-K1 [2]; 4.10 mM peptide): 0.2373
cell growth promotion, order of the peptides (CHO-K1 [2]): cell growth was promoted

Ala-Gly-Gly [AGG]
Absorbance (450 nm) (CHO-K1 [2]; 0.156 mM peptide): 0.0277
Absorbance (450 nm) (CHO-K1 [2]; 0.313 mM peptide): 0.0274
Absorbance (450 nm) (CHO-K1 [2]; 0.625 mM peptide): 0.0967
Absorbance (450 nm) (CHO-K1 [2]; 1.25 mM peptide): 0.2064
Absorbance (450 nm) (CHO-K1 [2]; 2.5 mM peptide): 0.3357
Absorbance (450 nm) (CHO-K1 [2]; 5 mM peptide): 0.2080
cell growth promotion, order of the peptides (CHO-K1 [2]): cell growth was promoted
